The values that follow come from patent US20260137807A1, “COMPOSITIONS AND METHODS FOR DELIVERING A MACROMOLECULE TO A CELL” (AstraZeneca AB, priority 2022, published 2026).

The test system of one data set is HeLa_Luc705 cells. As to the kind of experiment: Splice switching activity assay, 24 hr SMC treatment, Examples 4B/4D. It counts as cell-based. On the procedure: HeLa_Luc705 cells were seeded in 96-well plates at 10,000 cells per well in growth media with 2 μM Luc705-SSO or 1 μM Luc705-SSO. The various SMCs were diluted directly into prepared growth media. After 24 hr to allow adherence and SSO internalization, 10 μl of diluted SMC was added into each well at indicated concentrations. For a positive control, SSOs were complexed with Lipofectamine 2000 for 30 min at RT and cells treated with a final concentration of 200 nM. ON concentrations above 200 nM would require LF2000 to be used in excess of the cells' toxicity threshold. After 24 hr treatment, cells were lysed with 0.1% TritonX-100 (Sigma Aldrich, cat no. X100) in 1× PBS (Gibco, cat no. 10010023).
For the detection of luciferase activity, 30 μL of cell lysate was transferred to white-walled plates. The luciferase intensity in each well was immediately measured via luminometer following auto-injection of 25 μL Luciferin substrate as per the Promega Firefly Luciferase Assay System. The timing parameters of photon measurements were optimized for this procedure.
The various SMCs were diluted directly into prepared growth media. After 24 hr to allow adherence and SSO internalization, 10 μl of diluted SMC was added into each well at indicated concentrations. For a positive control, SSOs were complexed with Lipofectamine 2000 for 30 min at RT and cells treated with a final concentration of 200 nM. ON concentrations above 200 nM would require LF2000 to be used in excess of the cells' toxicity threshold. After 24 hr treatment, cells were lysed with 0.1% TritonX-100 (Sigma Aldrich, cat no. X100) in 1× PBS (Gibco, cat no. 10010023).

Another data set deals with HeLa mCherry-Gal9 cells. As to the kind of experiment: mCherry-GAL9 recruitment assay. It counts as cell-based. The text has this: (§1) All compounds were subjected to a mCherry-GAL9 recruitment assay. Under normal conditions, mCherry-GAL9 is homogenously dispersed in the cytosol. When an endosomal leakage event is detected, mCherry-GAL9 translocates to the damaged endosome (Du Rietz et al. (2020) Nat. Commun. 11:1809) The resulting localization pattern of discrete puncta can be visualized and quantitated.
(§2) HeLa and Huh7 cell lines stably expressing mCherry-GAL9 were generated as described by (bioRxiv) (Munson, M. et al. (2021) Communications Biology, 4(211): 1-14) and seeded into 384-well CellCarrier Ultra plates (PerkinElmer: 6007558) at 3000 or 3500 cells/well respectively, 16 h before experimental usage.
(§3) Dose-response curves of select compounds were generated using an Echo 655T acoustic dispenser (Labcyte) to dispense the indicated compounds into source plates (Greiner: 781280) containing growth media. At experimental start points, media containing appropriate compounds and doses was transferred to plates using a liquid handling robot (Agilent Bravo).
(§4) At assay endpoints, cells were washed 2× PBS at RT and fixed in 4% PFA (VWR: 9713.1000) for 15 mins/RT. Cells were washed a further 3× PBS before the addition of PBS+1 μg/ml Hoechst 33342 (ThermoFisher Scientific: H21492) for a minimum of 1 h before imaging.
(§5) Plates were imaged using a spinning-disk confocal microscope (Yokogawa: CV7000) with a 20× objective (NA 0.75). Images were processed utilizing Columbus image-analysis software (PerkinElmer: v2.9.0) to identify and quantify cells and mCherry-GAL9 structures. The resulting data were processed and normalized in Spotfire (Tibco: v10.3) and plotted in Prism (Graphpad: v8.0.1). Image panels were assembled using the FigureJ plugin for FIJI. (Mutterer and Zinck (2013) J. Microsc. 252(1):89-91).
(§6) Cells were subjected to a 10-point concentration dilution (0-15 μM) for 2 hours and then fixed and imaged (FIG. 3 and FIG. 4). Images were analyzed and curves were generated from both mCherry-GAL9 puncta quantitation and cell survival as determined by nuclear morphology (FIG. 5). The GAL9 recruitment response support the functional splice-switching data with SSOs, confirming the mCherry-GAL9 assay as a powerful tool for screening endosomolytic compounds and supporting the hypothesis that AZ2467 (Compound 6) and AZ4800 (Compound 2) promote SSO activity by inducing endosomal rupture. The GAL9 assay was again conducted, this time in live cells for 4 hours with select compounds for screening. Compounds were screened at 5 μM (FIG. 6-8) or 0.3125-10 μM (FIG. 35-38). FIG. 39 and FIG. 47 provide results for select compounds at various doses 0.3125-10 μM.

The next data set has as its system Huh7 mCherry-Gal9 cells. As to the kind of experiment: mCherry-GAL9 recruitment assay. It counts as cell-based.
Description: as §1, §2, §3, §4, §5, §6

In a further data set the test system is MALAT1 mRNA. The data set is described as follows: MALAT1 knockdown by gapmer, real-time PCR. The format is cell-based, mouse. To be noted: 2 μM AZ3327 with 2 μM gapmer, N2A cells, FIG. 28. As for the experimental part:
N2A cells were cultured in Dulbecco's modified eagle medium (Gibco, 31,966) containing 10% fetal bovine serum (Gibco, 10,270) and were maintained at 37° C. in a humidified atmosphere containing 5% CO2, 21% O2.
For knockdown analysis of the gapmers, 24-well plates 50,000 N2A cells in 500 μL total volume of media per well. Twenty-four hours later, the cells were treated with 2 μM MALAT1-targeting gapmer oligonucleotide having the sequence GM5CAttm5ctaatagm5cAGM5C, where m5c is 5-methylcytidine and capital letters are LNA nucleosides (SEQ ID NO:4) (Oligo Only), 2 μM MALA T1-targeting gapmer oligonucleotide and simultaneously 2 μM AZ3327 (2 μM AZ3327), or Lipofectamine-complexed MALAT1 Oligonucleotide at 200 nM (LF2000). All treatments were performed in biological triplicates. […] RNA concentration was measured via Nanodrop and cDNA was synthesized with High Capacity cDNA Reverse Transcription kit as per manufacturer's instructions (ThermoFisher Scientific, 4368814).
Real-time PCR reactions were run on QuantStudio 7 Flex Real-Time PCR System (Applied Biosystems) using MALAT1 TaqMan assays (mouse Mm01227912, Applied Biosystems) following the manufacturer's instructions. […] The absolute mRNA expression levels for MALAT1 were calculated by linear regression fitting the PCR product to a standard curve. […]

A value given as a limit tells only on which side of the number the result lay.

With `COc1nn(C2CCNCC2)cc1Nc1ncc(Cl)c(-n2ccc3c(C#N)cccc32)n1` [Compound 2], in the data set on HeLa_Luc705 cells (2 μM Luc 705 SSO, FIG. 26), the “increase in SSO activity” value is “induced an increase in SSO activity”. Moreover, the “relocalisation of Gal9 from cytosolic to punctate” value in the data set on HeLa mCherry-Gal9 cells (10-point dose titration, 2 hours, FIG. 3) is given as “dose-dependent manner”; with Huh7 mCherry-Gal9 cells (10-point dose titration, 2 hours, FIG. 4) it was “dose-dependent manner”. Moreover, the “endosomal rupture, decrease of 488-SSO puncta” value was “time and concentration-dependent manner” in the data set on HeLa mCherry-Gal9 cells (FIG. 16A); “time and concentration-dependent manner” in the data set on Huh7 mCherry-Gal9 cells (FIG. 16B). The “quantitation of GAL9 (mCherry-GAL9 puncta)” value in the data set with HeLa mCherry-Gal9 cells (FIG. 17A) is “time and concentration-dependent responses”; in the data set on Huh7 mCherry-Gal9 cells (FIG. 17B), “time and concentration-dependent responses”. The “window in concentration between induction of endosomal rupture and cytotoxicity” value is “narrow window” in the data set on HeLa mCherry-Gal9 cells (HeLa, FIG. 5) and “narrow window” with Huh7 mCherry-Gal9 cells (Huh7, FIG. 5). In addition, the “quantitation of Gal9 recruitment over time” value in the data set on HeLa mCherry-Gal9 cells (HeLa, FIG. 8) is “time-dependent endosomal rupture”; in the data set with Huh7 mCherry-Gal9 cells (Huh7, FIG. 7) it was “time-dependent endosomal rupture”. The “A488-positive structures (A488-SSO) after treatment” value with HeLa mCherry-Gal9 cells (preloaded 1 μM A488-SSO, FIG. 15A) is “gradually disappeared over 2 hours”; in the data set with Huh7 mCherry-Gal9 cells (preloaded 1 μM A488-SSO, FIG. 15B) it was “gradually disappeared over 2 hours”. In addition, the “Gal9 recruitment signal, puncta per relative nuclear signal” value in the data set with Huh7 mCherry-Gal9 cells (60 min, Huh7) is reported as “highest overall induced signal”.

`COc1nn(C2CCNCC2)cc1Nc1ncc(F)c(-n2ccc3c(C#N)cccc32)n1` [Compound 4]: the “increase in SSO activity” value in the data set on HeLa_Luc705 cells (2 μM Luc 705 SSO, FIG. 24) is “increase in SSO activity”; in the data set with HeLa_Luc705 cells (2 μM Luc 705 SSO, FIG. 26) it was “induced an increase in SSO activity”; with HeLa_Luc705 cells (2 μM SSO, FIG. 23A) it was “increase in SSO activity”. Also, the “activity of the oligo as compared to oligo only” value with HeLa_Luc705 cells (2.5 μM compound, 1 μM SSO, FIG. 27) is given as “enhanced activity of the oligo as compared to oligo only”. Also, in the data set with HeLa_Luc705 cells (higher concentrations of AZ3327, FIG. 23B), the “increase in SSO activity over 1 μM naked SSO” value is recorded as “increase in SSO activity”. Further, the “GAL9 response, rank among exemplified compounds” value in the data set on HeLa mCherry-Gal9 cells (doses 1.25-5 μM, 1, 2, 16 hours, FIG. 34) was “most potent response”; in the data set with Huh7 mCherry-Gal9 cells (doses 1.25-5 μM, 1, 2, 16 hours, FIG. 33), “most potent response”. Further, the “GAL9 response, rank” value in the data set with Huh7 mCherry-Gal9 cells (0.25 to 4 hours, 0.31 to 10 μM, FIG. 40) is on record as “most potent”. Besides, the dose from which GAL9+ responses are seen in the data set with Huh7 mCherry-Gal9 cells (after 15 mins, FIG. 40) was no less than 1.25 µM. Besides, the “knockdown of MALAT1 mRNA expression as compared to oligo alone” value in the data set with MALAT1 mRNA is “enhanced knockdown of MALAT1 mRNA expression”.
